Results on 17 compounds are retold here after ChEMBL document CHEMBL5223090, “Annual review of lysine-specific demethylase 1 (LSD1/KDM1A) inhibitors in 2021” (Eur J Med Chem, 2022).

As usually defined, the IC50 is the midpoint of a concentration-inhibition curve. As a reminder, the inhibition is the drop in the measured response relative to a control, in per cent.

Series [1] relates to MCF7. Nature of the series: cells. The following applies: Homo sapiens.
Series [2] has as its system THP-1. Nature of the series: cells. The following applies: Homo sapiens.
In series [3] the test system is A549. Nature of the series: cells. Particulars: Homo sapiens.
In series [4] the target is Histone deacetylase 2 (Homo sapiens, UniProt Q92769). Nature of the series: Inhibition of HDAC2 (unknown origin).
Series [5] can be described thus: in vitro. Particulars: human, THLE-2 cells.
For series [6], the system named is NCI-H460. Nature of the series: cells. Particulars: Homo sapiens.
The test system of series [7] is MGC-803. Nature of the series: cells. The following applies: Homo sapiens.
For series [8], the target named is T1, Lysine-specific histone demethylase 1A (Homo sapiens, UniProt O60341).
Series [9] addresses T2, MAO-A (Homo sapiens, UniProt P21397).
T2 sequence (P21397 whole entry): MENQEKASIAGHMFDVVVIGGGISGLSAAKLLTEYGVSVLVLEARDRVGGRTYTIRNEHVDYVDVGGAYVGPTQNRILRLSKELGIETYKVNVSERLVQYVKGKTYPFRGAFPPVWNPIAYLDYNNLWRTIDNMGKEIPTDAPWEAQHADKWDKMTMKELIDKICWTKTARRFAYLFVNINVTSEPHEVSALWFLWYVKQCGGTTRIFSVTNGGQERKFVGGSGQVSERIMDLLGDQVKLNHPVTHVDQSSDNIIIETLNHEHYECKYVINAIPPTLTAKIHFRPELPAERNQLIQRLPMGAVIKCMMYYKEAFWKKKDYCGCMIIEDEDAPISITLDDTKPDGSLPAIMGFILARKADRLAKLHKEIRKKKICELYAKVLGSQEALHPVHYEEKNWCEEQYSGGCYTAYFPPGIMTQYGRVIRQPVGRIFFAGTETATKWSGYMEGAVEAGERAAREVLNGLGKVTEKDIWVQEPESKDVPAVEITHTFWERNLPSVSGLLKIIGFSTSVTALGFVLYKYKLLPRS
The experiment in a line: Inhibition of MAO-A (unknown origin) at 0.4 uM relative to control.

Series [10] is described as follows: Antiproliferative activity against human SGC7901/ADR cells assessed as cell growth inhibition. Type of series: functional, cell-based. The following applies: SGC-7901.
The subject of series [11] is SGC-7901. The experiment in a line: Antiproliferative activity against human SGC-7901 cells assessed as cell growth inhibition. Type of series: functional, cell-based.
Series [12] deals with T1, Lysine-specific histone demethylase 1A. The experiment in a line: Inhibition of LSD1 (unknown origin) at 0.4 uM relative to control.
Series [13] deals with T3, MAO-B (Homo sapiens, UniProt P27338).
T3 sequence (P27338 whole entry): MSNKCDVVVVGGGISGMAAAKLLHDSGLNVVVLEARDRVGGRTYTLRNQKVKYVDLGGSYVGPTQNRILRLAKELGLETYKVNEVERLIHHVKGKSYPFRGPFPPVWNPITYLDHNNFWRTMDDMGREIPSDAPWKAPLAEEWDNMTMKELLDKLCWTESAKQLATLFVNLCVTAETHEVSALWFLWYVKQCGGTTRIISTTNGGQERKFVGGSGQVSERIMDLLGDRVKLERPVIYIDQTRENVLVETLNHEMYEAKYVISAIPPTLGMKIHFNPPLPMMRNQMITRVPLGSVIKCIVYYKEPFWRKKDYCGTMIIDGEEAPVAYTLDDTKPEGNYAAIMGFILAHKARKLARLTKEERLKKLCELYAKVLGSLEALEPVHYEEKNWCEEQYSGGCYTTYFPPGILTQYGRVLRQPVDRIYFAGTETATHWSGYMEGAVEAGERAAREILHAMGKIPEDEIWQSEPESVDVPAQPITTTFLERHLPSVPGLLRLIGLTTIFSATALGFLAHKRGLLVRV
Nature of the series: Inhibition of MAO-B (unknown origin) at 0.4 uM relative to control.

For series [14], the system named is HCT-116. The experiment in a line: Antiproliferative activity against human HCT-116 cells assessed as cell growth inhibition. Type of series: functional, cell-based.
Series [15] has as its system SK-OV-3. Nature of the series: Antiproliferative activity against human SK-OV-3 cells assessed as cell growth inhibition. Type of series: functional, cell-based.
Series [16] has as its system PC-3. Nature of the series: Antiproliferative activity against human PC-3 cells assessed as cell growth inhibition. Type of series: functional, cell-based.
Series [17] relates to HepG2. The experiment in a line: Antiproliferative activity against human HepG2 cells assessed as cell growth inhibition. Type of series: functional, cell-based.
Series [18] relates to A549.
Series [19] concerns Bel-7402. The experiment in a line: cells. Particulars: Homo sapiens.
Series [20] has as its system MDA-MB-231. The experiment in a line: Antiproliferative activity against human MDA-MB-231 cells assessed as cell growth inhibition. Type of series: functional, cell-based.

Histone deacetylase 2, sequence (Q92769 whole entry): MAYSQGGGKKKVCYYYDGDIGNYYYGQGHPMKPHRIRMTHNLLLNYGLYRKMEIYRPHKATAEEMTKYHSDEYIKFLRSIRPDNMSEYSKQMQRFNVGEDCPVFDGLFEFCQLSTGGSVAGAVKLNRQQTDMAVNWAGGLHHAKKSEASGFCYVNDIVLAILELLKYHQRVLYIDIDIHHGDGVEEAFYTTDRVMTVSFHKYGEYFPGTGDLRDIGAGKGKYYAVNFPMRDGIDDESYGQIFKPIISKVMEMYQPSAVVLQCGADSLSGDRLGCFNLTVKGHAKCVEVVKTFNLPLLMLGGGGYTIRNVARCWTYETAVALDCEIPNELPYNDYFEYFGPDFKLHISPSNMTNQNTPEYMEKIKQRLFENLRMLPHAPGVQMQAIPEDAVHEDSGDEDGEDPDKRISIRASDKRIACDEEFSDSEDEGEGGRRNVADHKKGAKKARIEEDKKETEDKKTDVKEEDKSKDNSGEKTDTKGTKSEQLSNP

Turning to `COc1cc(F)c(/C=C/c2ccc(C(=O)NO)cc2)cc1OC`, the results for the IC50 in series [1], in series [2] and in series [3] were 4960 µM, 2.15 µM and 1.58 µM, respectively.
For `Cn1c(C(=O)Nc2cccc3c2CCCN3Cc2ccc(OC3CCNCC3)cc2)cc2sccc21`, the IC50 in [1] was determined as 6.91 µM; in [3], 5.3 µM.
In turn, `N/C(=N\O)c1cccc(/C=C/c2ccnc(-c3cc(F)ccc3O)c2)c1` came in with an IC50 in [4] of over 100 µM.
Consider `CNCCCNCc1coc2cc(-c3ccc(C)cc3)c(-c3ccc(C#N)cc3)cc12`, for which the IC50 in [5] came to 4.2 µM; in [6], 1.87 µM; in [1], 3.36 µM; in series [7], 6.47 µM; in series [2] it was 4.87 µM; in series [3] it was 4.08 µM.
In turn, `Oc1ccc(CC2NCCc3cc(O)c(O)cc32)cc1` (configuration not stated) [HIGENAMINE] had an IC50 in series [8] of 1.47 µM.
Still for that read-out and setting: for `O=C(c1ccc(OCCN2CCCCC2)cc1)c1c(-c2ccc(O)cc2)sc2cc(O)ccc12` [RALOXIFENE] the value was 2.08 µM.
`Cn1c(C(=O)Nc2cccc3c2N(Cc2ccc(OC4CCNCC4)cc2)CCC3)cc2cc(F)ccc21` came in with an IC50 in series [8] of 0.54 µM.
With `COc1cc2c(c(O)c1OC)c(=O)c1ccccc1n2C` [ARBORININE], the inhibition at 0.4 µM in series [9] was determined as 23.7%; in series [13] it was 31%. Further, the IC50 in series [10] amounted to 0.24 µM; in [11], 1.96 µM. Moreover, the inhibition in series [12] was 99.3%.
For the compound `O=S1(=O)CCCCN(S(=O)(=O)c2ccc(-c3cnc(C4CC4)o3)cc2)c2ccccc21`, the IC50 is 0.263 µM in series [14], 1.62 µM in series [15], 5.88 µM in series [16] and 2.17 µM in series [17].
As to `Cn1c(C(=O)CC(=O)Nc2cccc3c2CCCN3Cc2ccc(OC3CCNCC3)cc2)cc2ccccc21`, the values for the IC50 in series [1] and in [3] were 7.02 µM and 7.61 µM, respectively.
The matching figures for `Cn1c(C(=O)Nc2cccc3c2CCCN3Cc2ccc(OC3CCNCC3)cc2[N+](=O)[O-])cc2sccc21`: 2.35 µM and 2.13 µM.
Turning to `O=C(CC(=O)c1ccc(C(F)(F)F)cc1)Nc1cccc2c1CCCN2Cc1ccc(OC2CCNCC2)cc1`, the IC50 in [1] was 0.35 µM; in series [3], 8.49 µM.
Regarding `Cc1ccc(-c2cc(/C=C/c3ccc(C(=O)NO)cc3)ccn2)c(F)c1`, the IC50 in series [4] was over 10 µM.
Consider `COc1cc(Br)c(/C=C/c2ccc(C(=O)NO)cc2)cc1OC`, for which, in series [2], the midpoint of inhibition, the IC50, lay at 3.39 µM. Further, the IC5 in [18] was 6.23 µM.
In the case of `Oc1ccc(C2CNCCc3c2cc(O)c(O)c3Cl)cc1` (configuration not stated) [FENOLDOPAM], half-maximal inhibition in [8] (IC50) required 0.89 µM.
On to `COc1ccc(S(=O)(=O)N(CCSC(=S)N2CCN(C)CC2)c2cc(OC)c(OC)c(OC)c2)cc1`, for which the IC50 in series [19] amounted to 0.32 µM.
Take `Nc1ccc(C(=O)/C=C/c2ccccc2F)cc1`: the IC50 was 13.2 µM in series [1] and 34.7 µM in series [20].
